Data from a compilation of properties of binary mixtures (doi:10.1021/acs.jpcb.7b06452).

Assay: xn = mol fraction of the nth substance listed
Conditions: 101 kPa

CC(=O)[O-].CCCC[P+](CCCC)(CCCC)CCCC + CC(=O)[O-].CCCC[n+]1ccn(C)c1
viscosity [mPa·s]
Conditions	313.15 K	323.15 K	333.15 K	343.15 K	353.15 K
x2 = 0	–	–	67.1	43.1	29.1
x2 = 0.5018	323	–	96.7	59.2	38.7
x2 = 0.751	–	133	78	49.6	33.2

CCCC[n+]1ccn(C)c1.O=S(=O)([N-]S(=O)(=O)C(F)(F)F)C(F)(F)F + CC(=O)[O-].CCCC[n+]1ccn(C)c1
x2 = 0
Conditions	viscosity [mPa·s]
293.15 K	62.9
303.15 K	40.8
313.15 K	28.1
323.15 K	20.29
333.15 K	15.34
343.15 K	11.98

CC(=O)[O-].CCCC[n+]1ccn(C)c1 + CCCC[n+]1ccn(C)c1.O=S(=O)([N-]S(=O)(=O)C(F)(F)F)C(F)(F)F
viscosity [mPa·s]
Conditions	293.15 K	298.15 K	303.15 K	313.15 K	323.15 K	333.15 K	343.15 K	353.15 K
x1 = 0.2512	101.2	78	61.3	–	27.9	20.19	15.46	–
x1 = 0.5001	178	132	–	60.7	39.5	27.4	19.92	15.15
x1 = 0.7497	316	223	–	91.3	–	36.9	25.7	18.76
